Columns and labels:
[1] = target: T1, Pin1 (Homo sapiens, UniProt Q13526); assay: Pin1 fluorescence polarization competition assay with Tamra-probe (secondary); settings: for Emax: read-out: Tamra Secondary Efficacy; for Tamra Secondary Curve Class: Tamra-probe
[2] = target: T1, Pin1; assay: confirmatory Pin1 fluorescence polarization competition assay (Alexa488 reconfirmed); settings: for Alexa488 Reconfirmed Curve Class: confirmatory retest; for Emax: read-out: Alexa488 Reconfirmed Efficacy;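 as to all read-outs here: Pin1 competition with a HiFluor488-labelled peptide probe, read as fluorescence polarization after 10 min at room temperature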
[3] = target: T1, Pin1; assay: Pin1 fluorescence polarization competition assay, primary qHTS (HiFluor-488 / Alexa488 probe);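 also: Pin1 protein with fluorescent peptide probe, compound displacement read by fluorescence polarization, percent inhibition derived from corrected polarization values, concentration-response curves in 1536-well format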
[4] = Alexa488 Primary Potency, primary qHTS
[5] = Average HTS Potency, average over Alexa488 primary, Alexa488 reconfirmed and Tamra secondary assays
[6] = read-out: Alexa488 Primary Efficacy

T1 sequence (Q13526 whole entry): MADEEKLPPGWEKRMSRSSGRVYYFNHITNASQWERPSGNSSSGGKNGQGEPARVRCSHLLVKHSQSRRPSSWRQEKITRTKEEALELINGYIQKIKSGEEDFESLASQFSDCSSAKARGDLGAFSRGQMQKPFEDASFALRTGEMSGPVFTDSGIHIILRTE

Compound	IC50 [1]	Emax [1]	IC50 [2]	Alexa488 Reconfirmed Curve Class [2]	Emax [2]	IC50 [3, 4]	IC50 [3, 5]	Alexa488 Primary Curve Class ([3]; primary qHTS)	Emax [3, 6]	Emax ([3]; read-out: Average HTS Efficacy)	Tamra Secondary Curve Class [1]
O=S(=O)(O)c1cc(O)c2cc(Nc3ccccc3)ccc2c1 [Compound 15]	12 µM	300%	11 µM	2.2 (≤80% (class 2.2))	71%	10 µM	11 µM	2.2 (≤80% (class 2.2))	27%	133%	–
COc1ccc(S(=O)(=O)N2CCN(C(=O)c3cc4c(s3)CCC4)CC2)cc1 [Compound 27]	27 µM	126%	–	–	112%	23 µM	27 µM	–	85%	108%	–
CC(=O)c1ccc2c(c1)C1C=CCC1C(C(=O)O)N2 (stereo not shown) [Compound 1]	1.2 µM	95%	1.3 µM	–	90%	6 µM	3 µM	1.2 (≤80% (class 1.2))	66%	84%	–
Cc1oc(-c2ccc3c(c2)OCCO3)cc1C(=O)NC(Cc1ccccc1)C(=O)O (stereo not shown) [Compound 21]	8 µM	72%	11 µM	2.2 (≤80% (class 2.2))	56%	15 µM	11 µM	1.2 (≤80% (class 1.2))	58%	62%	2.2 (≤80% (class 2.2))
O=C(O)C1Nc2c(Cl)cc(Cl)c(Cl)c2C2C=CCC12 (stereo not shown) [Compound 5]	2 µM	61%	2 µM	1.2 (≤80% (class 1.2))	75%	18 µM	7 µM	1.2 (≤80% (class 1.2))	53%	63%	1.2 (≤80% (class 1.2))
COc1ccc(C(=O)c2no[n+]([O-])c2C(=O)c2ccc(OC)cc2)cc1 [Compound 32]	0.19 µM	81%	0.24 µM	–	82%	38 µM	13 µM	1.2 (≤80% (class 1.2))	21%	61%	–
O=C(O)c1[nH]c2ccccc2c1C(c1cc(Cl)cc([N+](=O)[O-])c1O)c1c(C(=O)O)[nH]c2ccccc12 [Compound 44]	24 µM	83%	12 µM	2.2 (≤80% (class 2.2))	63%	36 µM	24 µM	2.2 (≤80% (class 2.2))	90%	79%	2.2 (≤80% (class 2.2))
COc1ccc(NC(=O)CN(C)C(=O)c2cc3c(s2)CCC3)cc1 [Compound 26]	21 µM	101%	24 µM	–	111%	20 µM	22 µM	–	71%	94%	–
O=C(c1ccc(=O)oc1)N1CCOCC1 [Compound 20]	6 µM	70%	2 µM	1.2 (≤80% (class 1.2))	77%	14 µM	7 µM	–	73%	73%	1.2 (≤80% (class 1.2))
O=C(NC(Cc1ccccc1)C(=O)O)/C(=C\c1ccco1)NC(=O)c1ccccc1 (stereo not shown) [Compound 35]	11 µM	75%	9 µM	–	112%	38 µM	19 µM	–	26%	71%	2.2 (≤80% (class 2.2))
CC(C)COc1ccc(C(=O)N/C(=C\c2cccc([N+](=O)[O-])c2)C(=O)O)cc1 [Compound 37]	12 µM	58%	15 µM	2.2 (≤80% (class 2.2))	63%	85 µM	37 µM	1.2 (≤80% (class 1.2))	19%	47%	2.2 (≤80% (class 2.2))
Cc1c(C(=O)c2no[n+]([O-])c2C(=O)c2cnn(C)c2C)cnn1C [Compound 30]	0.43 µM	80%	0.34 µM	–	89%	3 µM	1.16 µM	1.2 (≤80% (class 1.2))	69%	79%	–
N#Cc1no[n+]([O-])c1C(=O)c1cccs1 [Compound 31]	2 µM	82%	2 µM	–	85%	4 µM	2 µM	–	74%	80%	–
Cc1ccc(C)n1-c1cccc(C(=O)O)c1 [Compound 17]	3 µM	89%	2 µM	–	83%	10 µM	5 µM	–	64%	79%	–
COc1ccc(NS(=O)(=O)c2ccc3c(c2)[C@H]2C=CC[C@H]2[C@@H](c2ccc(C(=O)O)cc2)N3)cc1 [Compound 40]	24 µM	96%	10 µM	–	99%	25 µM	20 µM	–	55%	83%	2.2 (≤80% (class 2.2))
O=C(O)CCCNC(=O)/C=C/c1ccco1 [Compound 19]	5 µM	78%	2 µM	1.2 (≤80% (class 1.2))	73%	38 µM	15 µM	1.2 (≤80% (class 1.2))	41%	64%	2.2 (≤80% (class 2.2))
Cc1ccc(C)c2c1NC(C(=O)O)C1CC=CC21 (stereo not shown) [Compound 7]	14 µM	63%	–	2.2 (≤80% (class 2.2))	91%	45 µM	29 µM	1.2 (≤80% (class 1.2))	63%	72%	2.2 (≤80% (class 2.2))
O=C(O)c1cc(Cl)c2c(c1)[C@@H]1C=CC[C@@H]1[C@H](c1ccc(S(=O)(=O)N3CCOCC3)cc1)N2 [Compound 41]	19 µM	80%	19 µM	2.2 (≤80% (class 2.2))	62%	30 µM	23 µM	2.2 (≤80% (class 2.2))	88%	77%	2.2 (≤80% (class 2.2))
CCn1nc(-c2ccccc2C)nc2c(=O)n(C)c(=O)nc1-2 [Compound 48]	–	–	1 µM	–	73%	1 µM	1 µM	–	53%	63%	–

— patent US11129835B2, “Methods and compositions for the inhibition of PIN1” (Beth Israel Deaconess Medical Center, Inc., priority 2012, dated 2021)
